According to patent publication US6384048B1, “Imidazonaphthyridines” (Byk Gulden Lomberg Chemische Fabrik GmbH, priority 1998, dated 2002):

How the values were obtained:
[1] = test system: pentagastrin-stimulated acid secretion of the perfused rat stomach; assay: Secretion-inhibiting action on the perfused rat stomach (pentagastrin-stimulated acid secretion, in vivo); details: anesthetized CD rat, dose 3 μmol/kg i.v.
From the text: Testing of the Secretion-inhibiting Action on the Perfused Rat Stomach
In Table A which follows, the influence of the compounds according to the invention on the pentagastrin-stimulated acid secretion of the perfused rat stomach after intravenous administration in vivo is shown.
The abdomen of anesthetized rats (CD rat, female, 200-250 g; 1.5 g/kg i.m. urethane) was opened after tracheotomy by a median upper abdominal incision and a PVC catheter was fixed transorally in the esophagus and another via the pylorus such that the ends of the tube just projected into the gastric lumen. The catheter leading from the pylorus led outwards into the right abdominal wall through a side opening.
After thorough rinsing (about 50-100 ml), warm (37° C.) physiological NaCl solution was continuously passed through the stomach (0.5 ml/min, pH 6.8-6.9; Braun-Unita 1). The pH (pH meter 632, glass electrode EA 147; φ=5 mm, Metrohm) and, by titration with a freshly prepared 0.01 N NaOH solution to pH 7 (Dosimat 665 Metrohm), the secreted HCl were determined in the effluent in each case collected at an interval of 15 minutes.
The gastric secretion was stimulated by continuous infusion of […] (=1.65 ml/h) of i.v. pentagastrin (left femoral vein) about 30 min after the end of the operation (i.e. after determination of 2 preliminary fractions). […]

## CSCCO[C@@H]1c2ccn3c(C)c(C)nc3c2N[C@H](c2ccccc2)[C@H]1O [Example 1, (7R,8R,9R)-2,3-dimethyl-8-hydroxy-7-(2-methylthioethyloxy)-9-phenyl-7,8,9,10-tetrahydroimidazo[1,2-h][1,7]naphthyridine]
[1]
  Inhibition of acid secretion: 100%
other
  melting point: 118 to 119 °C

## CSCCO[C@H]1c2ccn3c(C)c(C)nc3c2N[C@H](c2ccccc2)[C@H]1O [Example 2, (7S,8R,9R)-2,3-dimethyl-8-hydroxy-7-(2-methylthioethyloxy)9-phenyl-7,8,9,10-tetrahydroimidazo[1,2-h][1,7]naphthyridine]
other
  melting point: 109 to 110 °C

## Cc1nc2c3c(ccn2c1C)[C@@H](OCC[S+](C)[O-])[C@H](O)[C@@H](c1ccccc1)N3 (stereo partly drawn) [Example 3, (7R,8R,9R)-2,3-dimethyl-8-hydroxy-7-(2-methylsulphinylethoxy)-9phenyl-7,8,9,10-tetrahydroimidazo[1,2-h][1,7]naphthyridine]
other
  melting point: 105 to 106 °C

## Cc1nc2c3c(ccn2c1C)[C@H](OCC[S+](C)[O-])[C@H](O)[C@@H](c1ccccc1)N3 (stereo partly drawn) [Example 4, (7S,8R,9R)-2,3-dimethyl-8-hydroxy-7-(2-methylsulphinylethoxy)-9-phenyl-7,8,9,10-tetrahydroimidazo[1,2-h][1,7]naphthyridine]
other
  melting point: 85 to 87 °C

## CCS[C@@H]1c2ccn3c(C)c(C)nc3c2N[C@H](c2ccccc2)[C@H]1O [Example 5, (7R,8R,9R)-2,3dimethyl-8-hydroxy-7-(ethylthio)-9-phenyl-7,8,9,10-tetrahydro-imidazo[1,2-h][1,7]naphthyridine]
[1]
  Inhibition of acid secretion: 100%
other
  melting point: 220 to 223 °C

## CCS[C@H]1c2ccn3c(C)c(C)nc3c2N[C@H](c2ccccc2)[C@H]1O [Example 6, (7S,8R,9R)-2,3-dimethyl-8-hydroxy-7-(ethylthio)-9-phenyl-7,8,9,10-tetrahydro-imidazo[1,2-h][1,7]naphthyridine]
other
  melting point: 235 to 236 °C
